Data published in the NIST ThermoML archive (doi:10.1021/je800271e).
± gives the expanded uncertainty stated by the source.

What was measured:
[1] = xn = mol fraction of the nth substance listed; details: for viscosity: Liquid
[2] = for viscosity: Liquid

OCCO [1,2-ethanediol] + O
[1]
Details	surface tension liquid-gas, 308.15 K [mN/m]	surface tension liquid-gas, 313.15 K [mN/m]	surface tension liquid-gas, 318.15 K [mN/m]	surface tension liquid-gas, 323.15 K [mN/m]	viscosity, 308.15 K [mPa·s]	viscosity, 313.15 K [mPa·s]	viscosity, 318.15 K [mPa·s]	viscosity, 323.15 K [mPa·s]
x1 = 0.0145	69.73 ± 1.4	66.55 ± 1.4	65.92 ± 1.4	63.24 ± 1.3	0.7543 ± 0.05	0.7037 ± 0.047	0.6336 ± 0.043	0.5878 ± 0.041
x1 = 0.0312	67.83 ± 1.4	65.58 ± 1.4	63.92 ± 1.3	60.58 ± 1.3	0.8381 ± 0.055	0.764 ± 0.051	0.6785 ± 0.046	0.6321 ± 0.043
x1 = 0.0484	66.13 ± 1.4	64.09 ± 1.3	62.24 ± 1.3	59.62 ± 1.3	0.9241 ± 0.06	0.8372 ± 0.055	0.7424 ± 0.05	0.6876 ± 0.046
x1 = 0.0686	64.57 ± 1.3	62.51 ± 1.3	60.57 ± 1.3	57.96 ± 1.2	1.021 ± 0.065	0.9256 ± 0.06	0.7995 ± 0.053	0.7433 ± 0.05
x1 = 0.0883	63.27 ± 1.3	61.32 ± 1.3	59.21 ± 1.3	56.77 ± 1.2	1.133 ± 0.071	1.017 ± 0.065	0.8755 ± 0.057	0.8133 ± 0.053
x1 = 0.1107	62.14 ± 1.3	60.32 ± 1.3	58.41 ± 1.3	55.75 ± 1.2	1.266 ± 0.079	1.127 ± 0.071	0.9589 ± 0.062	0.8853 ± 0.058
x1 = 0.1621	60.02 ± 1.3	58.1 ± 1.2	56.25 ± 1.2	54.15 ± 1.2	1.574 ± 0.096	1.405 ± 0.087	1.184 ± 0.074	1.082 ± 0.068
x1 = 0.2247	57.51 ± 1.2	55.92 ± 1.2	54.36 ± 1.2	52.15 ± 1.2	2.036 ± 0.12	1.772 ± 0.11	1.48 ± 0.091	1.339 ± 0.083
x1 = 0.3032	56.03 ± 1.2	54.45 ± 1.2	52.66 ± 1.2	50.52 ± 1.1	2.662 ± 0.16	2.298 ± 0.14	1.888 ± 0.11	1.679 ± 0.1
x1 = 0.4035	54.03 ± 1.2	52.41 ± 1.2	50.65 ± 1.1	49.12 ± 1.1	3.512 ± 0.2	3.017 ± 0.18	2.468 ± 0.15	2.179 ± 0.13
x1 = 0.5366	52.47 ± 1.2	50.7 ± 1.1	49.34 ± 1.1	47.88 ± 1.1	4.7 ± 0.27	4.054 ± 0.23	3.283 ± 0.19	2.874 ± 0.17
x1 = 1	50.11 ± 1.1	48.73 ± 1.1	47.25 ± 1.1	46.41 ± 1.1	9.212 ± 0.45	7.961 ± 0.4	6.293 ± 0.34	5.447 ± 0.3

OCCO [1,2-ethanediol]
[2]
Details	surface tension liquid-gas [mN/m]	viscosity [mPa·s]
308.15 K	50.11 ± 1.1	9.212 ± 0.45
313.15 K	48.73 ± 1.1	7.961 ± 0.4
318.15 K	47.25 ± 1.1	6.293 ± 0.34
323.15 K	46.41 ± 1.1	5.447 ± 0.3

O [water] + OCCO
[1], x2 = 0
Details	surface tension liquid-gas [mN/m]	viscosity [mPa·s]
308.15 K	71.02 ± 1.4	0.721 ± 0.048
313.15 K	69.69 ± 1.4	0.6532 ± 0.045
318.15 K	67.68 ± 1.4	0.59 ± 0.041
323.15 K	66.12 ± 1.4	0.55 ± 0.039
